Source: patent publication US10626095B2, “Cyanotriazole compounds” (OTSUKA PHARMACEUTICAL CO., LTD., priority 2013, dated 2020)

Test system: NaCT-CHO (CHO cells stably expressing human NaCT)
Experiment: Assay of the citric acid cycle activation ([1,5-14C]-citric acid, diffusion of [14C]-CO2)
Format: cell-based
Details: 1 hour incubation at 37° C. with [1,5-14C]-citric acid
Method in brief: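 NaCT-CHO cells (pME-CHO empty-vector cells for non-specific counts) were incubated 1 h at 37 °C in Na+-containing HEPES-Tris pH 7.4 with compound plus an equal volume of 0.4 mM [1,5-14C]-citric acid solution. Residual cell radioactivity was counted, [14C]-CO2 diffusion was taken as (Total−R)/(Total−NS)×100%, and EC50 was derived by regression.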

Row | Structure (SMILES) | EC50
1 | CC(C)Cc1sc(-c2ccc(Cl)cc2)nc1-c1nn[nH]c1C#N [Example 106, 5-[2-(4-chloro-phenyl)-5-isobutyl-thiazol-4-yl]-3H-[1,2,3]triazole-4-carbonitrile] | 840 nM
2 | N#Cc1[nH]nnc1-c1nc(-c2ccc(Cl)cc2)sc1-c1ccc(C(F)(F)F)cc1 [Example 107, 5-[2-(4-chloro-phenyl)-5-(4-trifluoromethyl-phenyl)-thiazol-4-yl]-3H-[1,2,3]triazole-4-carbonitrile] | 2560 nM
3 | N#Cc1[nH]nnc1-c1nc(Oc2ccc(OC(F)(F)F)cc2)sc1Cl [Example 109, 5-[5-chloro-2-(4-trifluoromethoxy-phenoxy)-thiazol-4-yl]-3H-[1,2,3]triazole-4-carbonitrile] | 670 nM
4 | COc1sc(-c2ccc(Cl)cc2)nc1-c1nn[nH]c1C#N [Example 110, 5-[2-(4-chloro-phenyl)-5-methoxy-thiazol-4-yl]-3H-[1,2,3]triazole-4-carbonitrile] | 3230 nM
5 | N#Cc1[nH]nnc1-c1cnc(-c2cccc(C(F)(F)F)c2)s1 [Example 111, 5-[2-(3-trifluoromethyl-phenyl)-thiazol-5-yl]-3H-[1,2,3]triazole-4-carbonitrile] | 750 nM
6 | N#Cc1[nH]nnc1-c1cnc(/C=C/c2cccc(C(F)(F)F)c2)s1 [Example 112, 5-{2-[(E)-2-(3-trifluoromethyl-phenyl)-vinyl]-thiazol-5-yl}-3H-[1,2,3]triazole-4-carbonitrile] | 790 nM
7 | Cc1nc(-c2ccc(Cl)cc2)sc1-c1nn[nH]c1C#N [Example 113, 5-[2-(4-chloro-phenyl)-4-methyl-thiazol-5-yl]-3H-[1,2,3]triazole-4-carbonitrile] | 790 nM
8 | Cc1nc(-c2cccc(C(F)(F)F)c2)sc1-c1nn[nH]c1C#N [Example 114, 5-[4-methyl-2-(3-trifluoromethyl-phenyl)-thiazol-5-yl]-3H-[1,2,3]triazole-4-carbonitrile] | 450 nM
9 | CCc1nc(-c2ccc(Cl)cc2)sc1-c1[nH]nnc1C#N [Example 115, 5-[2-(4-chloro-phenyl)-4-ethyl-thiazol-5-yl]-1H-[1,2,3]triazole-4-carbonitrile] | 650 nM
10 | N#Cc1[nH]nnc1-c1sc(-c2ccc(F)c(Cl)c2)nc1C(F)(F)F [Example 116, 5-[2-(3-chloro-4-fluoro-phenyl)-4-trifluoromethyl-thiazol-5-yl]-3H-[1,2,3]triazole-4-carbonitrile] | 4130 nM
11 | N#Cc1[nH]nnc1-c1coc(-c2ccc(OC(F)(F)F)cc2)n1 [Example 117, 5-[2-(4-trifluoromethoxy-phenyl)-oxazol-4-yl]-3H-[1,2,3]triazole-4-carbonitrile] | 1590 nM
12 | CCCc1oc(-c2ccc(Cl)cc2)nc1-c1nn[nH]c1C#N [Example 119, 5-[2-(4-chloro-phenyl)-5-propyl-oxazol-4-yl]-3H-[1,2,3]triazole-4-carbonitrile] | 710 nM
13 | N#Cc1[nH]nnc1-c1nc(-c2cccc(Cl)c2)oc1C1CC1 [Example 121, 5-[2-(3-chloro-phenyl)-5-cyclopropyl-oxazol-4-yl]-3H-[1,2,3]triazole-4-carbonitrile] | 990 nM
14 | CC(C)c1oc(-c2ccc(F)cc2)nc1-c1nn[nH]c1C#N [Example 123, 5-[2-(4-fluoro-phenyl)-5-isopropyl-oxazol-4-yl]-3H-[1,2,3]triazole-4-carbonitrile] | 680 nM
15 | CC(C)c1oc(-c2ccc(OC(F)(F)F)cc2)nc1-c1nn[nH]c1C#N [Example 124, 5-[5-isopropyl-2-(4-trifluoromethoxy-phenyl)-oxazol-4-yl]-3H-[1,2,3]triazole-4-carbonitrile] | 920 nM
16 | CC(C)Cc1oc(-c2ccc(F)c(F)c2)nc1-c1nn[nH]c1C#N [Example 125, 5-[2-(3,4-difluoro-phenyl)-5-isobutyl-oxazol-4-yl]-3H-[1,2,3]triazole-4-carbonitrile] | 540 nM
17 | N#Cc1[nH]nnc1-c1sccc1-c1cc(C(F)(F)F)cc(C(F)(F)F)c1 [Example 126, 5-[3-(3,5-bis-trifluoromethyl-phenyl)-thiophen-2-yl]-3H-[1,2,3]triazole-4-carbonitrile] | 260 nM
18 | N#Cc1[nH]nnc1-c1sccc1-c1cccc(OCc2cc(C(F)(F)F)ccc2C(F)(F)F)c1 [Example 127, 5-{3-[3-(2,5-bis-trifluoromethyl-benzyloxy)-phenyl]-thiophen-2-yl}-3H-[1,2,3]triazole-4-carbonitrile] | 740 nM
19 | N#Cc1[nH]nnc1-c1cc(-c2ccccc2)c(C(F)(F)F)s1 [Example 128, 5-(4-phenyl-5-trifluoromethyl-thiophen-2-yl)-3H-[1,2,3]triazole-4-carbonitrile] | 560 nM
20 | N#Cc1[nH]nnc1-c1ccc(-c2cc(F)cc(C(F)(F)F)c2)s1 [Example 129, 5-[5-(3-fluoro-5-trifluoromethyl-phenyl)-thiophen-2-yl]-3H-[1,2,3]triazole-4-carbonitrile] | 440 nM
21 | Cc1cc(-c2nn[nH]c2C#N)sc1-c1ccc(C(F)(F)F)cc1 [Example 130, 5-[4-methyl-5-(4-trifluoromethyl-phenyl)-thiophen-2-yl]-3H-[1,2,3]triazole-4-carbonitrile] | 730 nM
22 | N#Cc1[nH]nnc1-c1ccc(Cc2ccc(Cl)cc2)s1 [Example 131, 5-[5-(4-chloro-benzyl)-thiophen-2-yl]-3H-[1,2,3]triazole-4-carbonitrile] | 440 nM
23 | N#Cc1[nH]nnc1-c1ccc(Oc2cccc(C(F)(F)F)c2)s1 [Example 132, 5-[5-(3-trifluoromethyl-phenoxy)-thiophen-2-yl]-3H-[1,2,3]triazole-4-carbonitrile] | 320 nM
24 | N#Cc1[nH]nnc1-c1ccc(/C=C/c2cccc(C(F)(F)F)c2)s1 [Example 133, 5-{5-[(E)-2-(3-trifluoromethyl-phenyl)-vinyl]-thiophen-2-yl}-3H-[1,2,3]triazole-4-carbonitrile] | 190 nM
25 | N#Cc1[nH]nnc1-c1cscc1-c1cc(C(F)(F)F)cc(C(F)(F)F)c1 [Example 134, 5-[4-(3,5-bis-trifluoromethyl-phenyl)-thiophen-3-yl]-3H-[1,2,3]triazole-4-carbonitrile] | 85 nM
26 | N#Cc1[nH]nnc1-c1cc(/C=C/c2cccc(C(F)(F)F)c2)co1 [Example 135, 5-{4-[(E)-2-(3-trifluoromethyl-phenyl)-vinyl]-furan-2-yl}-3H-[1,2,3]triazole-4-carbonitrile] | 1570 nM
27 | N#Cc1[nH]nnc1-c1ccc(-c2ccc(Cl)cc2)o1 [Example 136, 5-[5-(4-chloro-phenyl)-furan-2-yl]-3H-[1,2,3]triazole-4-carbonitrile] | 680 nM
28 | N#Cc1[nH]nnc1-c1cccn1Cc1ccc(C(F)(F)F)cc1C(F)(F)F [Example 138, 5-[1-(2,4-bis-trifluoromethyl-benzyl)-1H-pyrrol-2-yl]-3H-[1,2,3]triazole-4-carbonitrile] | 62 nM
29 | Cn1c(-c2cc(F)cc(C(F)(F)F)c2)ccc1-c1nn[nH]c1C#N [Example 139, 5-[5-(3-fluoro-5-trifluoromethyl-phenyl)-1-methyl-1H-pyrrol-2-yl]-3H-[1,2,3]triazole-4-carbonitrile] | 210 nM
30 | N#Cc1[nH]nnc1-c1ccn(-c2cc(C(F)(F)F)ccc2C(F)(F)F)c1 [Example 140, 5-[1-(2,5-bis-trifluoromethyl-phenyl)-1H-pyrrol-3-yl]-3H-[1,2,3]triazole-4-carbonitrile] | 800 nM
